Measured values from patent publication US5605929A, “Methods and compositions for inhibiting 5α-reductase activity” (priority 1995, dated 1997).

Assays:
[1] = molecular target: T1, 5α-Reductase of Rat Liver Microsomes (Rattus norvegicus, UniProt P24008); experiment: [3H]4-MA binding assay, rat liver microsomes (tea catechins); settings: read-out: % Inhibition of [^3 H]4-MA binding; for inhibition at 5 µM: Table 8, 5 μM; for inhibition at 10 µM: Table 8, 10 μM; for inhibition at 20 µM: Table 8, 20 μM; for inhibition at 40 µM: Table 8, 40 μM; for inhibition at 200 µM: Table 8, 200 μM
T1 sequence (P24008 1-259): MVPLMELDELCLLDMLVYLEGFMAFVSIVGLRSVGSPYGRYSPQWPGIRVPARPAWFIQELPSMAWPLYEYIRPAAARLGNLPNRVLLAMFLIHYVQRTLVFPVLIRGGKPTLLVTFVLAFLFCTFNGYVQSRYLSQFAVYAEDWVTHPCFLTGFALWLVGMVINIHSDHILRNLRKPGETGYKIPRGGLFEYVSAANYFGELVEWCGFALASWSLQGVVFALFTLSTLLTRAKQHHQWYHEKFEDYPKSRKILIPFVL
Protocol: Microsomes were prepared as described previously (Liang and Liao, 1992) from the liver of adult Sprague-Dawley female rats or Rat-1A cells expressing a specific type of human 5α-reductase. Each study was carried out in duplicate or triplicate which were usually within 10% of each other. Several studies were preformed to assure that the results shown are representative. The data presented was based on the rate of reaction.
[^3 H]4-MA binding assay were described in detail previously (Liang and Liao, 1992; Liang et al., 1983). […] The reaction was started by the addition of 25 μl of microsomes (25 μg protein). After 30-60 min incubation at 0° C., the [^3 H]4-MA bound to microsomes was collected on a Whatman GF/F glass fiber, washed and radioactivity determined (Liang and Liao, 1992).

hamster flank organ = experiment: Flank organ, castrated immature male hamsters, topical treatment; format: in vivo, Syrian golden hamster; settings: for effect on the contralateral flank organ: topical to right flank organ; for Percent Inhibition / Pigmented macule Right (+T): Table 5, T 0.5 μg + fatty acid 1 mg; for Percent Inhibition / Pigmented macule Right (+T) / Pigmented macule Left: 21 days; for Pigmented macule Right (+T): T alone 49.6 ± 8.3; for Pigmented macule Left: Table 5, fatty acid 1 mg without T; for inhibition of T-induced growth of pigmented macule: hamster, in vivo
Protocol: One to two weeks after castration, the hair on the lower back of each animal was clipped with an electric hair clipper and then shaved weekly to expose the flank organs. The animals were divided into 5 animals/treatment group. A treatment solution (5 μl) was applied topically to the right flank organ once a day using a Pipetteman and a polypropylene disposable tip. Unless specified the left flank organ was not treated. The treatment solution contained either (a) ethanol alone (vehicle and control), (b) an androgen (T or 5α-DHT), (c) a fatty acid, or (d) a combination of an androgen and a fatty acid. The flank organ was wiped with an alcohol pad to remove residual compound before each treatment. […] The flank organs, both the treated and untreated sides, were evaluated with methods to be described below to determine the effect of these treatments of the growth of the pigmented macules and the sebaceous glands. The body weight of each animal was recorded before and after treatment.
The data are presented as mean ± standard deviation. […]

[2] = molecular target: T1, 5α-Reductase of Rat Liver Microsomes; experiment: biochemical; settings: for inhibition at 5 µM: read-out: % Inhibition of [^3 H]4-MA binding, Table 2, 5 μM
Protocol: Briefly, the binding assay solution, in a final volume of 0.15 ml, contained microsomes (2-20 μg of protein), 0.08 μCi of [^3 H]4-MA, 0.1 mM-NADPH, 1 mM-dithiothreitol and 50 mM-potassium phosphate, pH 7.0, with or without the indicated amount of a lipid or an inhibitor preparation. Lipids were dissolved in ethanol and added in 1-5 μl volumes. Control tubes received the same amount of ethanol. After incubation at 0° C. for 1 h, the [^3 H]4-MA bound to microsomes was determined by collecting microsomes on a Whatman GF/1F glass fibre filter and washing with 10 ml of 20 mM-potassium phosphate, pH 7.0, containing 0.01% CHAPS to remove unbound [^3 H]4-MA.
Microsomes were prepared at 4° C. from a buffered 0.32M-sucrose homogenate of human liver and from the livers of adult Sprague-Dawley female rats by differential centrifugation as described previously (Liang et al., 1990), and were used in the assay of 5α-reductase activity. In some experiments, microsomes were solubilized with 0.1% polyoxyethylene ether W-1 as described previously (Liang et al., 1990), except for the substitution of polyoxyethylene ether W-1 for Lubrol-WX.

[3] = read-out: % Inhibition of [^3 H]4-MA binding, Table 1, 10 μM
[4] = read-out: % Inhibition of [^3 H]4-MA binding, Table 1, 40 μM
[5] = read-out: % Inhibition of [^3 H]4-MA binding, Table 1, 200 μM
[6] = read-out: % Inhibition of [^3 H]4-MA binding, Table 2, 10 μM
[7] = read-out: % Inhibition of [^3 H]4-MA binding, Table 2, 40 μM
[8] = read-out: % Inhibition of [^3 H]4-MA binding, Table 2, 200 μM
[9] = read-out: % Inhibition of [^3 H]4-MA binding

## Oc1cc(O)c2c(c1)O[C@H](c1ccc(O)c(O)c1)[C@@H](O)C2 (relative stereo) [(±)Catechin]
[1]
  inhibition at 5 µM: < 10%
  inhibition at 10 µM: < 10%
  inhibition at 20 µM: < 10%
  inhibition at 40 µM: < 10%
  inhibition at 200 µM: < 10%

## C[C@]12CCC(=O)C[C@@H]1CC[C@@H]1[C@@H]2CC[C@]2(C)[C@@H](O)CC[C@@H]12 [5α-DHT, 5α-dihydrotestosterone, reference compound]
Hamster flank organ
  effect on the contralateral flank organ: no detectable effect

## Oc1cc(O)c2c(c1)O[C@H](c1ccc(O)c(O)c1)[C@@H](O)C2 [(+)Catechin]
[1]
  inhibition at 5 µM: < 10%
  inhibition at 10 µM: < 10%
  inhibition at 20 µM: < 10%
  inhibition at 40 µM: < 10%
  inhibition at 200 µM: < 10%

## CCCCC/C=C\C/C=C\C/C=C\C/C=C\CCCC(=O)O [Arachidonic acid]
[2]
  IC50: 65 µM
[2]; [3]
  inhibition at 10 µM: < 10%
[2]; [4]
  inhibition at 40 µM: 30 ± 10%
[2]; [5]
  inhibition at 200 µM: 88 ± 5%
[2]; [6]
  inhibition at 10 µM: < 10%
[2]; [7]
  inhibition at 40 µM: 30%
[2]; [8]
  inhibition at 200 µM: 88%
Hamster flank organ
  Percent Inhibition: 28%
  Pigmented macule Right (+T): 35.7 ± 7.9 mm^2
  Pigmented macule Left: 4.7 ± 1.6 mm^2
  inhibition of T-induced growth of pigmented macule: Weak inhibitions

## CCCCC/C=C\C/C=C\CCCCCCCC(=O)O [Linoleic acid]
[2]
  IC50: 117 µM
[2]; [3]
  inhibition at 10 µM: < 10%
[2]; [4]
  inhibition at 40 µM: 12 ± 3%
[2]; [5]
  inhibition at 200 µM: 86 ± 4%
[2]; [6]
  inhibition at 10 µM: < 10%
[2]; [7]
  inhibition at 40 µM: 12%
[2]; [8]
  inhibition at 200 µM: 86%
Hamster flank organ
  Percent Inhibition: 52%
  Pigmented macule Right (+T): 23.9 ± 5.0 mm^2
  Pigmented macule Left: 5.4 ± 1.6 mm^2
  inhibition of T-induced growth of pigmented macule: active

## CC/C=C\C/C=C\C/C=C\C/C=C\CCCCC(=O)O [Octadecatetraenoic acid]
[2]
  IC50: 57 µM
[2]; [3]
  inhibition at 10 µM: < 10%
[2]; [4]
  inhibition at 40 µM: 40 ± 6%
[2]; [5]
  inhibition at 200 µM: 88 ± 2%
[2]; [6]
  inhibition at 10 µM: < 10%
[2]; [7]
  inhibition at 40 µM: 40%
[2]; [8]
  inhibition at 200 µM: 88%

## CCCCCCCC/C=C\CCCCCCCC(=O)OC [Oleic acid methyl ester]
[2]; [9]
  inhibition at 40 µM: < 10%
  inhibition at 200 µM: < 10%

## CCCCCCCC/C=C\CCCCCCCC(=O)O [Oleic acid]
[2]
  IC50: 128 µM
  inhibition at 5 µM: < 10%
[2]; [3]
  inhibition at 10 µM: < 10%
[2]; [4]
  inhibition at 40 µM: 16 ± 6%
[2]; [5]
  inhibition at 200 µM: 63 ± 12%
[2]; [6]
  inhibition at 10 µM: < 10%
[2]; [7]
  inhibition at 40 µM: 16%
[2]; [8]
  inhibition at 200 µM: 63%
Hamster flank organ
  Percent Inhibition: 43%
  Pigmented macule Right (+T): 28.1 ± 8.3 mm^2
  Pigmented macule Left: 4.7 ± 0.5 mm^2
  inhibition of T-induced growth of pigmented macule: active

## CCCCCCCC/C=C\CCCCCCCCO [Oleyl alcohol]
[2]; [9]
  inhibition at 40 µM: < 10%
  inhibition at 200 µM: < 10%

## CCCCCC/C=C/CCCCCCCC(=O)O [Palmitelaidic Acid]
[2]; [9]
  inhibition at 200 µM: < 10%

## CCCCCCCCCCCCCCCC(=O)O [Palmitic acid]
[2]; [5]
  inhibition at 200 µM: < 10%
[2]; [8]
  inhibition at 200 µM: < 10%
Hamster flank organ
  Percent Inhibition: 25%
  Pigmented macule Right (+T): 37.2 ± 6.3 mm^2
  Pigmented macule Left: 5.1 ± 2.9 mm^2
  inhibition of T-induced growth of pigmented macule: Weak inhibitions

## CCCCCC/C=C\CCCCCCCC(=O)OC [Palmitoleic acid methyl ester]
[2]; [9]
  inhibition at 40 µM: < 10%
  inhibition at 200 µM: < 10%

## CCCCCC/C=C\CCCCCCCC(=O)O [Palmitoleic acid]
[2]
  IC50: 108 µM
[2]; [3]
  inhibition at 10 µM: < 10%
[2]; [4]
  inhibition at 40 µM: 16 ± 5%
[2]; [5]
  inhibition at 200 µM: 73 ± 7%
[2]; [6]
  inhibition at 10 µM: < 10%
[2]; [7]
  inhibition at 40 µM: 16%
[2]; [8]
  inhibition at 200 µM: 73%

## CCCCCC/C=C\CCCCCCCCO [Palmitoleyl alcohol]
[2]; [9]
  inhibition at 40 µM: < 10%
  inhibition at 200 µM: 16 ± 4%

## CCCCCCCCCCC/C=C\CCCCC(=O)O [Petroselinic acid]
[2]; [4]
  inhibition at 40 µM: < 10%
[2]; [5]
  inhibition at 200 µM: 52 ± 9%
[2]; [7]
  inhibition at 40 µM: < 10%
[2]; [8]
  inhibition at 200 µM: 52%

## C[C@]12CC[C@H]3[C@@H](CCC4=CC(=O)CC[C@@]43C)[C@@H]1CC[C@@H]2O [T, Testosterone, reference compound]
Hamster flank organ; Table 4, T 0.5 μg alone, 18 days
  Pigmented Macule, Untreated (L): 3.6 ± 0.5 mm^2
Hamster flank organ
  effect on the contralateral flank organ: no detectable effect

## CCCCC/C=C\C/C=C\C/C=C\CCCCC(=O)OCC(COC(=O)CCCC/C=C\C/C=C\C/C=C\CCCCC)OC(=O)CCCC/C=C\C/C=C\C/C=C\CCCCC [Tri-γ-Linolenin, tri-γ-linolenin]
[2]
  IC50: > 200 µM
  inhibition at 5 µM: < 10%
[2]; [6]
  inhibition at 10 µM: < 10%
[2]; [7]
  inhibition at 40 µM: < 10%
[2]; [8]
  inhibition at 200 µM: < 10%

## CCCCC/C=C\C/C=C\C/C=C\CCCCC(=O)O[C@H]1CC[C@@]2(C)C(=CC[C@H]3[C@@H]4CC[C@H]([C@H](C)CCCC(C)C)[C@@]4(C)CC[C@@H]32)C1 [cholesteryl γ-linolenate]
[2]
  IC50: > 200 µM

## CC/C=C\C/C=C\C/C=C\C/C=C\C/C=C\C/C=C\CCCO [cis4,7,10,13,,16,19-docosahexenol]
[2]; [9]
  inhibition at 200 µM: 51%

## CCCCC/C=C\C/C=C\C/C=C\CCCCCCC(=O)Cl [homo-γ-linolenoyl chloride]
[2]
  IC50: > 200 µM

## CCCCC/C=C/C/C=C/CCCCCCCCC#N [linolelaidyl cyanide nitrile]
[2]
  IC50: > 200 µM

## CCCCC/C=C\C/C=C\CCCCCCCCC#N [linoleyl cyanide nitrile]
[2]
  IC50: > 200 µM

## CCCCCCC=CCCCCCCCCC(=O)OC [methyl 10-heptadecenoate]
[2]
  IC50: > 200 µM

## CCC=CCC=CCC=CCCCCCCCCCCCC(=O)OC [methyl 13,16,19-docosatrienoate]
[2]
  IC50: > 200 µM

## CCCCC/C=C\C/C=C\C/C=C\CCCCCCC(=O)OC [methyl homo-γ-linolenate]
[2]
  IC50: > 200 µM

## CCCCC/C=C\C/C=C\C/C=C\CCCCC(=O)OC [methyl γ-linolenate]
[2]
  IC50: > 200 µM

## CCCC/C=C\CCCCCCCC(=O)OC [myristoleic acid methyl ester]
[2]; [9]
  inhibition at 200 µM: 27%

## CCCCCCCCCCCCCCCCCCC#N [nonadecane nitrile]
[2]
  IC50: > 200 µM

## CCCCCC/C=C/CCCCCCCCCC(=O)O [trans-Vaccenic Acid]
[2]; [8]
  inhibition at 200 µM: 39%

## CC/C=C\C/C=C\C/C=C\CCCCCCCC(=O)OC [α-Linolenic acid methyl ester]
[2]; [9]
  inhibition at 10 µM: < 10%
  inhibition at 40 µM: < 10%
  inhibition at 200 µM: < 10%

## CC/C=C\C/C=C\C/C=C\CCCCCCCC(=O)O [α-Linolenic acid, α-linolenic acid]
[2]; [3]
  inhibition at 10 µM: 19 ± 3%
[2]; [4]
  inhibition at 40 µM: 27 ± 7%
[2]; [5]
  inhibition at 200 µM: 84 ± 6%
[2]
  inhibition at 5 µM: < 10%
[2]; [6]
  inhibition at 10 µM: 19%
[2]; [7]
  inhibition at 40 µM: 27%
[2]; [8]
  inhibition at 200 µM: 84%
Hamster flank organ
  Percent Inhibition: 44%
  Pigmented macule Right (+T): 27.6 ± 8.2 mm^2
  Pigmented macule Left: 4.1 ± 1.2 mm^2
  inhibition of T-induced growth of pigmented macule: less active than γ-LA

## CC/C=C\C/C=C\C/C=C\CCCCCCCCO [α-Linolenyl alcohol]
[2]; [9]
  inhibition at 10 µM: < 10%
  inhibition at 40 µM: < 10%
  inhibition at 200 µM: 24 ± 1%

## CCCCC/C=C\C/C=C\C/C=C\CCCCC(=O)Cl [γ-Linolenoyl Chloride, γ-linolenoyl chloride]
[2]
  IC50: > 200 µM
[2]; [6]
  inhibition at 10 µM: < 10%
[2]; [7]
  inhibition at 40 µM: < 10%
[2]; [8]
  inhibition at 200 µM: < 10%

## CCCCC/C=C\C/C=C\C/C=C\CCCCCOC(C)=O [γ-Linolenyl Acetate, γ-linolenyl acetate]
[2]
  IC50: > 200 µM
  inhibition at 5 µM: < 10%
[2]; [6]
  inhibition at 10 µM: < 10%
[2]; [7]
  inhibition at 40 µM: < 10%
[2]; [8]
  inhibition at 200 µM: 27%

## CCCCC/C=C\C/C=C\C/C=C\CCCCCO [γ-Linolenyl Alcohol, γ-linolenyl alcohol]
[2]
  IC50: > 200 µM
  inhibition at 5 µM: < 10%
[2]; [6]
  inhibition at 10 µM: < 10%
[2]; [7]
  inhibition at 40 µM: < 10%
[2]; [8]
  inhibition at 200 µM: 41%
